In paper PMC11432795, “Mutagenesis of the Peptide Inhibitor of ASIC3 Channel Introduces Binding to Thumb Domain of ASIC1a but Reduces Analgesic Activity” (Marine Drugs, 2024):
Entries after “also recorded” stand apart in the source; their conditions may differ. Positions of bridges follow the written chain, without caps; N, C: chain ends. Residues, ends and D or L forms follow the SMILES beside them.

Key:
ASIC3 channels = details: ref [18],[19],[20]; cited from earlier work
Excerpt: The 29-amino acid peptide Ugr9a-1, isolated from the venom of the northern sea anemone Urticina grebelnyi, represents a structural class of toxins termed “boundless β-hairpin”.

rat ASIC1b channel = test: Two-electrode voltage clamp, rat ASIC1b in X. laevis oocytes; assay type: cell-based; details: 30 s preapplication, activated at pH 5.5
Protocol: A small portion of the ovary was isolated from frogs under anesthesia induced by a 0.17% solution of procaine methanesulphonate (MS222) (Sigma), followed by treatment with collagenase (1 mg/mL) at room temperature for 2 h. Oocytes at stages IV and V, devoid of follicular membranes, were transferred to ND-96 medium (containing 96 mM NaCl, 5 mM HEPES, 2 mM KCl, 1.8 mM CaCl2, 1 mM MgCl2, pH 7.4). mRNA synthesis was performed from pcDNA3.1 vectors (Invitrogen, Carlsbad, CA, USA) containing the rat ASIC3 gene, as well as pCI vectors containing genes for rat ASIC1a, its mutant analogues, and ASIC1b. mRNA (2.5–10 ng) was then injected into the oocytes. For the ASIC1a/3 heteromeric channels, the mRNA encoding the ASIC1a and ASIC3 subunits were injected in a 1:5 ratio, respectively. Subsequently, the oocytes were incubated for 2–3 days at a temperature of 17–19 °C in ND96 medium supplemented with gentamicin and streptomycin (20 µg/mL each).
Whole-cell electrophysiological recordings of ASIC channels were conducted using a two-electrode voltage-clamp setup. Microelectrodes were filled with 3 M KCl. Recordings from oocytes were carried out at a holding potential of −50 mV, with data filtered at 10 Hz and sampled at a rate of 100 Hz using an L780M ADC (LCard, Moscow, Russia). […]

[1] = tested on: rat ASIC1a D355A mutant channel; test: Two-electrode voltage clamp, D355A mutant ASIC1a in X. laevis oocytes; assay type: cell-based; details: 10 µM; pH 5.5 stimulus, conditioning pH 7.4, peptide 30 s; n = 5
Protocol: (§1) Figure 5 The pivotal role of residue D355 in the ASIC1a channel for the action of the A23K peptide ligand. (A,B) pH dependence of steady-state desensitization (A) and activation (B) in mutant channels (D355A and E357A) compared to the wild-type channel (wt). Each data point represents results from 5 cells. (C–E) Representative current traces illustrating the effects of A23K at a concentration of 10 µM on wt (C), D355A (D), and E357A (E) channels. Currents were evoked by a pH 5.5 stimulus following a conditioning pH of 7.4, with the peptide applied for 30 s preceding the pH stimulus. (F) Bar graph quantifying the effects depicted in (C,D) as a percentage of the corresponding control currents (n = 5). A value of 1.0, represented by a dotted line, corresponds to control measurements at pH 5.5 for each form of ASIC1a. The data are expressed as mean ± SEM; *** p < 0.001, **** p < 0.0001, ns non-significant vs. control, unpaired t-test.
(§2) To introduce D355A and E357A substitutions, we designed two pairs of primers. For D355A substitution, the forward primer sequence was 5′–[…]–3′, and the reverse primer (R2) for D355A was 5′–CTAGGAAGTCCAGGGCAG–3′. For E357A substitution, the forward primer sequence was 5′–[…]–3′, and the reverse primer for E357A was the same as for D355A (designated as “R2”). […]

[2] = tested on: rat ASIC1a E357A mutant channel; test: Two-electrode voltage clamp, E357A mutant ASIC1a in X. laevis oocytes; assay type: cell-based; details: 10 µM; pH 5.5 stimulus, conditioning pH 7.4, peptide 30 s; mean ± SEM, n = 5
Protocol: as §1, §2

[3] = All pain tests conducted (overall); assay type: in vivo, ICR mice; details: i.m.
Protocol: Adult male ICR mice (Animal Breeding Facility Branch of Shemyakin–Ovchinnikov Institute of Bioorganic Chemistry, Russian Academy of Sciences, Pushchino, Russia), weighing 20–25 g, were utilized. Animals were housed under controlled conditions, with a room temperature of 23 ± 2 °C, a 12 h light–dark cycle, and ad libitum access to food and water. Test substances were dissolved in saline. Peptides (Ugr9-1 and A23K at doses of 0.002, 0.02, and 0.2 mg/kg) and saline (for the control group) were administered intramuscularly 60 min prior to testing.
The abdominal constriction test of visceral pain (acetic acid-induced writhing pain model) and hyperalgesia induced by complete Freund’s adjuvant (CFA-induced inflammatory pain model) were performed as previously described.
For the von Frey filaments test, mice were positioned in a plastic chamber with access to the inflamed hind paw surface and an electronic von Frey filament (BIO-EVF, Bioseb, Vitrolles, France) was applied with gradually increasing pressure until withdrawal. Data, expressed as the strength of the applied mechanical stimulus from three applications, were averaged, with intervals between exposures of at least 1 min.
Statistical analysis was conducted using analysis of variance (ANOVA) with post hoc Tukey’s test, and data are presented as mean ± standard deviation (S.D.).

Row | SMILES | modulation of ASIC3 channels (ASIC3 channels) | effect on rat ASIC1b channel at 50 µM (rat ASIC1b channel) | inhibitory effect on D355A mutant channel [1] | inhibitory effect on E357A mutant channel [2] [%] | analgesic effect compared to the wild-type peptide [3]
1 | CC[C@H](C)[C@H](N)C(=O)N[C@@H](CO)C(=O)N[C@H](C(=O)N[C@@H](CC(=O)O)C(=O)N1CCC[C@H]1C(=O)N1CCC[C@H]1C(=O)N[C@H]1CSSC[C@@H]2NC(=O)[C@H](CC(N)=O)NC(=O)CNC(=O)[C@H](CO)NC(=O)CNC(=O)[C@H](CC(=O)O)NC(=O)[C@H](CCCNC(=N)N)NC(=O)[C@H](Cc3c[nH]cn3)NC(=O)[C@H](Cc3ccc(O)cc3)NC(=O)[C@H](CSSC[C@@H](C(=O)NCC(=O)N[C@@H](C)C(=O)N[C@H](C(=O)O)C(C)C)NC(=O)CNC(=O)[C@H](Cc3ccc(O)cc3)NC(=O)[C@H](C)NC(=O)[C@H](CC(=O)O)NC(=O)[C@H](Cc3ccc(O)cc3)NC(=O)[C@H](C(C)C)NC2=O)NC(=O)[C@H](Cc2ccccc2)NC(=O)[C@H](CCCNC(=N)N)NC1=O)[C@@H](C)CC [Ugr9-1] (H-ISIDPPCRFCYHRDGSGNCVYDAYGCGAV-OH; disulfide 7-19, 10-26) | selectively modulates ASIC3 channels |  |  |  | 
2 | CC[C@H](C)[C@H](N)C(=O)N[C@@H](CO)C(=O)N[C@H](C(=O)N[C@@H](CC(=O)O)C(=O)N1CCC[C@H]1C(=O)N1CCC[C@H]1C(=O)N[C@H]1CSSC[C@@H]2NC(=O)[C@H](CC(N)=O)NC(=O)CNC(=O)[C@H](CO)NC(=O)CNC(=O)[C@H](CC(=O)O)NC(=O)[C@H](CCCNC(=N)N)NC(=O)[C@H](Cc3c[nH]cn3)NC(=O)[C@H](Cc3ccc(O)cc3)NC(=O)[C@H](CSSC[C@@H](C(=O)NCC(=O)N[C@@H](C)C(=O)N[C@H](C(=O)O)C(C)C)NC(=O)CNC(=O)[C@H](Cc3ccc(O)cc3)NC(=O)[C@H](CCCCN)NC(=O)[C@H](CC(=O)O)NC(=O)[C@H](Cc3ccc(O)cc3)NC(=O)[C@H](C(C)C)NC2=O)NC(=O)[C@H](Cc2ccccc2)NC(=O)[C@H](CCCNC(=N)N)NC1=O)[C@@H](C)CC [A23K] (H-ISIDPPCRFCYHRDGSGNCVYDKYGCGAV-OH; disulfide 7-19, 10-26) |  | Lack of effect | no significant effect; also recorded: entirely abolished | 47.1 ± 7.7 | significantly less pronounced analgesic effect compared to the wild-type peptide
